From patent publication US9271497B2, “1-(substituted-benzoyl)-5-fluoro-4-imino-3-methyl-3,4-dihydropyrimidin-2(1H)-one derivatives” (DOW AGROSCIENCES LLC, priority 2012, dated 2016)

Columns and labels:
[1] = tested on: Mycosphaerella graminicola; Anamorph: Septoria tritici; Bayer Code SEPTTR; assay: Fungicidal activity against leaf blotch of wheat, one-day protectant (1DP); format: in vivo; conditions: wheat plants (variety Yuma), % disease control rating
Description: (§1) Evaluation of Fungicidal Activity: Leaf Blotch of Wheat (Mycosphaerella graminicola; Anamorph: Septoria tritici; Bayer Code […]) Wheat plants (variety Yuma) were grown from seed in a greenhouse in 50% mineral soil/50% soil-less Metro mix until the first leaf was fully emerged, with 7-10 seedlings per pot. These plants were inoculated with an aqueous spore suspension of Septoria tritici either prior to or after fungicide treatments. After inoculation the plants were kept in 100% relative humidity (one day in a dark dew chamber followed by two to three days in a lighted dew chamber) to permit spores to germinate and infect the leaf. The plants were then transferred to a greenhouse for disease to develop. The following table presents the activity of typical compounds of the present disclosure when evaluated in these experiments. The effectiveness of the test compounds in controlling disease was determined by assessing the severity of disease on treated plants, then converting the severity to percent control based on the level of disease on untreated, inoculated plants.

[2] = tested on: Mycosphaerella graminicola; Anamorph: Septoria tritici; Bayer Code SEPTTR; assay: Fungicidal activity against leaf blotch of wheat, three-day curative (3DC); format: in vivo; conditions: wheat plants (variety Yuma), % disease control rating
Description: as §1

Structure (SMILES)	melting point	SEPTTR 100 PPM 1DP [1]	SEPTTR 100 PPM 3DC [2]
Cn1c(=N)c(F)cn(C(=O)c2cc(Cl)cc(Cl)c2)c1=O [Compound 1, 1-(3,5-dichlorobenzoyl)-5-fluoro-4-imino-3-methyl-3,4-dihydropyrimidin-2(1H)-one]	141.6 to 142.6 °C	A (76-100)	A (76-100)
Cc1ccc(C(=O)n2cc(F)c(=N)n(C)c2=O)cc1 [Compound 2]	103 to 107 °C	A (76-100)	A (76-100)
